Laboratory results: ChEMBL document CHEMBL1141113, “High affinity electrophilic and photoactivatable covalent endocannabinoid probes for the CB1 receptor” (J Med Chem, 2005)

Key:
Cannabinoid receptor 1 = Cannabinoid receptor 1 (Rattus norvegicus, UniProt P20272); test: Binding affinity towards rat brain cannabinoid receptor 1 in the presence of PMSF upon incubation for 15 min at 4 degree C in pH 7.4 using [3H]CP-55940
Cannabinoid receptor 2 = Cannabinoid receptor 2 (Mus musculus, UniProt P47936); test: Binding affinity towards mouse spleen cannabinoid receptor 2 in the presence of PMSF upon incubation for 15 min at 4 degree C in pH 7.4 using [3H]CP-55940; format: tissue-based
Sequence of Cannabinoid receptor 2 (P47936 whole entry): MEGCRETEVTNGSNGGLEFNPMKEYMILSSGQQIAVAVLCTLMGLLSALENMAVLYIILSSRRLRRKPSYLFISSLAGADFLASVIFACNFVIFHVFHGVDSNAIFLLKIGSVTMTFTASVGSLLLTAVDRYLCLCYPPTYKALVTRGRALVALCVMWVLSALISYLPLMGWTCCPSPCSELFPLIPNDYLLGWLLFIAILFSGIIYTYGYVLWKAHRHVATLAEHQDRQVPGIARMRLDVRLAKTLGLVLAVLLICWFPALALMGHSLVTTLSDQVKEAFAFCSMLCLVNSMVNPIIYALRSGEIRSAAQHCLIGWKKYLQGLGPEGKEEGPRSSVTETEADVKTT

Sequence of Cannabinoid receptor 1 (P20272 whole entry): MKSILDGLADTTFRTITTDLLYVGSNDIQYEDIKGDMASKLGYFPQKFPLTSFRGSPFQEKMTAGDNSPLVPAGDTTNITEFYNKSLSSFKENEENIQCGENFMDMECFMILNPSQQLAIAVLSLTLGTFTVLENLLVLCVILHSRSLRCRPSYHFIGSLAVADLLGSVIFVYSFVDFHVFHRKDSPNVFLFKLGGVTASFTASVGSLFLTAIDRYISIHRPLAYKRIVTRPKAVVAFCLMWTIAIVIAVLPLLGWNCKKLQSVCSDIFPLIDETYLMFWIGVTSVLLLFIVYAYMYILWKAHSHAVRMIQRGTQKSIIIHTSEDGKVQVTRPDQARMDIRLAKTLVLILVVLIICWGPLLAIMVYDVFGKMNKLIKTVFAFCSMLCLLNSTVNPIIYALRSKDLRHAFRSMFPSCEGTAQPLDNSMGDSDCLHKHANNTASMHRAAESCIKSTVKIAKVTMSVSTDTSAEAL

Row | Structure (SMILES) | Ki (Cannabinoid receptor 1) [nM] | Ki (Cannabinoid receptor 2) [nM]
1 | O=C(CCC/C=C\C/C=C\C/C=C\C/C=C\CCCCCN=C=S)NC1CC1 | 1.3 | 48.5
2 | CCCCC/C=C\C/C=C\C/C=C\C/C=C\CCCC(=O)NC1CC1 | 2.7 | 157
